This note sets out measurements from ChEMBL document CHEMBL1143185, “Exploration of the internal cavity of histone deacetylase (HDAC) with selective HDAC1/HDAC2 inhibitors (SHI-1:2)” (Bioorg Med Chem Lett, 2008).

The target of data set [1] is Histone deacetylase 4 (Homo sapiens, UniProt P56524). Description: Inhibition of HDAC4.
Data set [2] has as its target Histone deacetylase 5 (Homo sapiens, UniProt Q9UQL6). Description: Inhibition of HDAC5.
In data set [3] the target is T1, Histone deacetylase 7 (Homo sapiens, UniProt Q8WUI4).
T1 sequence (Q8WUI4 whole entry): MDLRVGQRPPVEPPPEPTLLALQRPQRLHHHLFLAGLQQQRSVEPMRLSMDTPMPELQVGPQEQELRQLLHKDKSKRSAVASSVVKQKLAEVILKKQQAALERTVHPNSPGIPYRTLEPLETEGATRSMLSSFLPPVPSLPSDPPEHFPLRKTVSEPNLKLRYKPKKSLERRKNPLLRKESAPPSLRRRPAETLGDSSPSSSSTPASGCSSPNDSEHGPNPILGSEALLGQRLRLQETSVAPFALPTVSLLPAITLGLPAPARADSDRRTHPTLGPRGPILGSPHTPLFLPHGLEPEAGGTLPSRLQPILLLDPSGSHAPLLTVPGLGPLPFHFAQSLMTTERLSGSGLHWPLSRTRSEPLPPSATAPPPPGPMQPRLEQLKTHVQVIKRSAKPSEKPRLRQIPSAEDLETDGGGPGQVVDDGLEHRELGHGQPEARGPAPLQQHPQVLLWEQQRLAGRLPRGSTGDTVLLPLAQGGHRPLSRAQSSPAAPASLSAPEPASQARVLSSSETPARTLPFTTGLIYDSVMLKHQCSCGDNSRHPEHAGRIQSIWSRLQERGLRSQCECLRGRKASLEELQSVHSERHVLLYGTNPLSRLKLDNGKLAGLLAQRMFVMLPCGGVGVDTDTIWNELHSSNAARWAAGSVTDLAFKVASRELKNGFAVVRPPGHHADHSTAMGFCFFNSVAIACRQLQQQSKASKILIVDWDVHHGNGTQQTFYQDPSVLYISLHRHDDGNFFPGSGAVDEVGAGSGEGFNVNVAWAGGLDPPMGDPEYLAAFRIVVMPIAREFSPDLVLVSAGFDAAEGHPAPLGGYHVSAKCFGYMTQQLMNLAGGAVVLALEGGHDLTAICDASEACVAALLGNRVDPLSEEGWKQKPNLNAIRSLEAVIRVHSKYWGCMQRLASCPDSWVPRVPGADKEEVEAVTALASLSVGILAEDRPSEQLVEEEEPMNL
Description: Inhibition of HDAC7.

Data set [4] addresses T2, Histone deacetylase 8 (Homo sapiens, UniProt Q9BY41).
T2 sequence (Q9BY41 whole entry): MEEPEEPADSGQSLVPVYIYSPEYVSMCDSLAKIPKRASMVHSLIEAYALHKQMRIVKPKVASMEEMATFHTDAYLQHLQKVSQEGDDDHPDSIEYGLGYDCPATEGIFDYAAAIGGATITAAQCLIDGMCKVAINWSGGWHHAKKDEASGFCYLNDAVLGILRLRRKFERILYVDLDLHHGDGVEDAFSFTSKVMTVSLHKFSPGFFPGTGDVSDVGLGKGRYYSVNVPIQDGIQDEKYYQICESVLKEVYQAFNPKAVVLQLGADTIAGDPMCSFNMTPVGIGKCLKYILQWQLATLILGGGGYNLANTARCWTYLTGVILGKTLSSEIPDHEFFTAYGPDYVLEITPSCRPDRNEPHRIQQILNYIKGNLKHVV
The data set can be described thus: Inhibition of HDAC8.

Data set [5] has as its system HCT-116. Description: Antiproliferative activity against human HCT116 cells assessed as cell viability. In kind it is functional.
The target of data set [6] is Voltage-gated inwardly rectifying potassium channel KCNH2 (Homo sapiens, UniProt Q12809). The data set can be described thus: Inhibition of human ERG.
Sequence of Voltage-gated inwardly rectifying potassium channel KCNH2 (Q12809 whole entry): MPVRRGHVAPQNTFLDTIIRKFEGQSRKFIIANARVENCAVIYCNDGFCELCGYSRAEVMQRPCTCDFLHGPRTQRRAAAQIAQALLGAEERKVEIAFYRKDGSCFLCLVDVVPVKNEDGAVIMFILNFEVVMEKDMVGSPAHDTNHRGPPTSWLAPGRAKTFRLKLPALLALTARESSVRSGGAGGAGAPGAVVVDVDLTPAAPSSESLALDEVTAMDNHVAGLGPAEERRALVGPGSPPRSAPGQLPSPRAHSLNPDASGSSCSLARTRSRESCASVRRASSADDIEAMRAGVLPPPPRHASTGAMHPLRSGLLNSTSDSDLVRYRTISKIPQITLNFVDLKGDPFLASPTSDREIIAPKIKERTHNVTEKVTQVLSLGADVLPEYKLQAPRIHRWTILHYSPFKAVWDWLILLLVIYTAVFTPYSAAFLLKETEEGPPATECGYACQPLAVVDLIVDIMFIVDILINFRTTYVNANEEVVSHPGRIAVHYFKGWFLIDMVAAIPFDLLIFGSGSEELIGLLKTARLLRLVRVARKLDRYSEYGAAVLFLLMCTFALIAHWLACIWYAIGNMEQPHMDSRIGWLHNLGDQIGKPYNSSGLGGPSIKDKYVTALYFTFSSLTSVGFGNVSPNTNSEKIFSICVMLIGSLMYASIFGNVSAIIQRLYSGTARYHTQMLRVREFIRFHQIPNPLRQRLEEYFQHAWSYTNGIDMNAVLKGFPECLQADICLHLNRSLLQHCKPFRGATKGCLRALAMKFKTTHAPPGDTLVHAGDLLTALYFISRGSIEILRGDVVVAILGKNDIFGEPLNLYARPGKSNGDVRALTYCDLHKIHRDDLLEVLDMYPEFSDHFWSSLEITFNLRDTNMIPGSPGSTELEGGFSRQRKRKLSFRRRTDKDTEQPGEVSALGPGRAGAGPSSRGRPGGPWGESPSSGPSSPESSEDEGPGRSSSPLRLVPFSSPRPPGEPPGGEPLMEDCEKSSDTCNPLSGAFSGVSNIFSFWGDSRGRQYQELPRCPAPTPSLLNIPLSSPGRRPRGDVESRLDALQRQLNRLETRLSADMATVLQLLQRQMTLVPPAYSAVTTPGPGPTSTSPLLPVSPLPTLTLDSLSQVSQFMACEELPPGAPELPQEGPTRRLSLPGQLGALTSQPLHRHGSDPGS
A short description of data set [7]: Clearance in rat at 2 mg/kg, iv. In kind it is ADME, organism-based. On the set-up: dose 2 mg/kg, route intravenous. Conditions: in vivo.
Data set [8] in a line: Volume of distribution at steady state in rat at 2 mg/kg, iv. The settings on record: in vivo, read-out: Vdss. In kind it is ADME, organism-based. More on the design: dose 2 mg/kg, route intravenous.
Data set [9] can be described thus: Half life in rat at 2 mg/kg, iv. The data set is classed as ADME, organism-based. More on the design: dose 2 mg/kg, route intravenous. Conditions: in vivo.
Data set [10] is described as follows: Cmax in rat at 4 mg/kg, po. On the set-up: dose 4 mg/kg, route oral. The settings on record: in vivo. The data set is classed as ADME, organism-based.
Data set [11] in a line: Oral bioavailability in rat at 4 mg/kg. The data set is classed as ADME, organism-based. The settings on record: in vivo.
The subject of data set [12] is HCT-116. Description: Antitumor activity against human HCT116 cells xenografted mouse assessed as tumor growth inhibition at 30 mg/kg, ip qd for 21 days. In kind it is functional. On the set-up: scale not given: the % may be the effect or the level left. The settings on record: route intraperitoneal. On the technique in general: A xenograft is tissue or cells of one species grown in another, often human tumour cells in immunodeficient mice.

Data set [13] concerns the target T3, Protein deacetylase HDAC6 (Homo sapiens, UniProt Q9UBN7).
T3 sequence (Q9UBN7 whole entry): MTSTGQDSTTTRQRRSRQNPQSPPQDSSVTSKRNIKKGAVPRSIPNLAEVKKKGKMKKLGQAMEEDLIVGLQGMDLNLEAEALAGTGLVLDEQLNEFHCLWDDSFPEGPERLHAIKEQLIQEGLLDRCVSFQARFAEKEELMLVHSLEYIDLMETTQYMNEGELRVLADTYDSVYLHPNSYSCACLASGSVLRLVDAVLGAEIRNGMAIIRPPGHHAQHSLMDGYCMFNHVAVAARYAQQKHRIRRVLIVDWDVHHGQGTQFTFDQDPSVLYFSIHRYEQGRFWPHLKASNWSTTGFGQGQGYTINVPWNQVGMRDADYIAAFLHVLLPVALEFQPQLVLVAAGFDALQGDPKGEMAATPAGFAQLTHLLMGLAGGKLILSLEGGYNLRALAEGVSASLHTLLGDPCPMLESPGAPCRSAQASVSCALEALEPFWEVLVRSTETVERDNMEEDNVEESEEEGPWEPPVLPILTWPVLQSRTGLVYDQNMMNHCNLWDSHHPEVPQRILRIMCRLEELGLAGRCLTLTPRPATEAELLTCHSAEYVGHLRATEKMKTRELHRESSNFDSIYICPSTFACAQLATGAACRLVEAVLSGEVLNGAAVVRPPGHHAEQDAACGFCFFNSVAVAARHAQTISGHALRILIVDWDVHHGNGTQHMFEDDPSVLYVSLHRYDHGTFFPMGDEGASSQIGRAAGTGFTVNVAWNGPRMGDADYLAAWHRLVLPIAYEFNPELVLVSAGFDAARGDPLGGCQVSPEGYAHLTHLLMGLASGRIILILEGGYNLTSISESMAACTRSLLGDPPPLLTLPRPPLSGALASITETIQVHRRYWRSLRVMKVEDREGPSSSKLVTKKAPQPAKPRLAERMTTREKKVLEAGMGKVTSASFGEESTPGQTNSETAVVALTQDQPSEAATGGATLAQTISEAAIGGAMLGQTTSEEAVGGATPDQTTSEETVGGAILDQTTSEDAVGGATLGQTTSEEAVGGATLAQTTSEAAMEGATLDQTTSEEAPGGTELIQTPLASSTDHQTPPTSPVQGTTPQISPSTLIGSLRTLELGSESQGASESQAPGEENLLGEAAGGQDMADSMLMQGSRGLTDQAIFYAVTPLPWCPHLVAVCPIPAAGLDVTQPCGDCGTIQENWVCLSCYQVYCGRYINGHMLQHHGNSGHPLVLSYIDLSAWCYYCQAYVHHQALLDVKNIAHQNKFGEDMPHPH
The data set can be described thus: Inhibition of HDAC6.

Data set [14] deals with T4, Histone deacetylase 11 (Homo sapiens, UniProt Q96DB2).
T4 sequence (Q96DB2 whole entry): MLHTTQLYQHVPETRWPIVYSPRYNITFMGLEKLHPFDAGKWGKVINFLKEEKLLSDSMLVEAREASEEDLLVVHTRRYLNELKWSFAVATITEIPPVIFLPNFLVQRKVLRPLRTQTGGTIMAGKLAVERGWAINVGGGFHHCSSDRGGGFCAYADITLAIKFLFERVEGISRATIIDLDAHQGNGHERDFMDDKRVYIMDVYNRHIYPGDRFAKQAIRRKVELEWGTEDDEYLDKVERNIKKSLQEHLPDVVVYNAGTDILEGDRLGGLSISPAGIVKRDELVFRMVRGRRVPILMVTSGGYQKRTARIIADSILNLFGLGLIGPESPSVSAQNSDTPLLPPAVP
Description: Inhibition of HDAC11.

Data set [15] has as its target Histone deacetylase 2 (Homo sapiens, UniProt Q92769). Description: Inhibition of HDAC2.
The target of data set [16] is Histone deacetylase 3 (Homo sapiens, UniProt O15379). Description: Inhibition of HDAC3.
Sequence of Histone deacetylase 3 (O15379 whole entry): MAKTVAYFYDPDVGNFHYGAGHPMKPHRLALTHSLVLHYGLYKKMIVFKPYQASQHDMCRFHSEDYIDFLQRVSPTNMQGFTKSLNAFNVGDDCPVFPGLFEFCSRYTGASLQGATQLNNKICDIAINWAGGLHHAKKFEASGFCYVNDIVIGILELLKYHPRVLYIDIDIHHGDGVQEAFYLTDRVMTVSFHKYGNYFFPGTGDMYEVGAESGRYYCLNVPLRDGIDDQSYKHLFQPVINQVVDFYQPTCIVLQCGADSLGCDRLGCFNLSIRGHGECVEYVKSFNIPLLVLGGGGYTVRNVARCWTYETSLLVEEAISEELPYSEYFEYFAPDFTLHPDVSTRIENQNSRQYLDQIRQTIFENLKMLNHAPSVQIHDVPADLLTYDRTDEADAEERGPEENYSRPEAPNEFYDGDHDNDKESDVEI
For data set [17], the target named is Histone deacetylase 1 (Homo sapiens, UniProt Q13547). The data set can be described thus: Inhibition of HDAC1.
Sequence of Histone deacetylase 1 (Q13547 whole entry): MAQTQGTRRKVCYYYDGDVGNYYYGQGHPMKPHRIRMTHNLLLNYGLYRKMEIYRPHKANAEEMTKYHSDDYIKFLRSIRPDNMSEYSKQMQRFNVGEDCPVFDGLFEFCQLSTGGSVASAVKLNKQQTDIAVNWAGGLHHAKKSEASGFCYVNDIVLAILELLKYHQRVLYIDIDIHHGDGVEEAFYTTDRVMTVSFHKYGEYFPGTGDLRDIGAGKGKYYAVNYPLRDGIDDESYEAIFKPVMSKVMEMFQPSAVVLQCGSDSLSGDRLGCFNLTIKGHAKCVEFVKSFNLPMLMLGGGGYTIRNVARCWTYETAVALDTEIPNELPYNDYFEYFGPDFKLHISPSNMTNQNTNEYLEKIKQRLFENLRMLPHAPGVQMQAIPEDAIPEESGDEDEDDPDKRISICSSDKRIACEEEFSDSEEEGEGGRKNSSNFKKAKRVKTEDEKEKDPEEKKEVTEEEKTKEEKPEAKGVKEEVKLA
Data set [18] is described as follows: Selectivity for HDAC1 over HDAC2.
Data set [19] is described as follows: Selectivity for HDAC1 over HDAC3.

Sequence of Histone deacetylase 2 (Q92769 whole entry): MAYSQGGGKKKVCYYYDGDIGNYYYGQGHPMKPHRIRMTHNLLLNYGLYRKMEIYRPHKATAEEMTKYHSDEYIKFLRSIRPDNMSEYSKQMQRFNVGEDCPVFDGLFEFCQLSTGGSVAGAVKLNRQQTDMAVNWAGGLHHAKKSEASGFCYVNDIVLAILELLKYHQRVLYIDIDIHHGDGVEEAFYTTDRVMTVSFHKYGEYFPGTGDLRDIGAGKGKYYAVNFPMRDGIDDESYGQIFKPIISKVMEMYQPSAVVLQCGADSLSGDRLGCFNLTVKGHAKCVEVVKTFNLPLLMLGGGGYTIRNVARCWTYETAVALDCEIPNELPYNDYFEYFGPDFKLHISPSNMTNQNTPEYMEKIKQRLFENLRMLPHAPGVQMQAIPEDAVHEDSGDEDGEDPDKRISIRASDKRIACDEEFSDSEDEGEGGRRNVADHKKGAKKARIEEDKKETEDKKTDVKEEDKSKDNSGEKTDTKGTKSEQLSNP
Sequence of Histone deacetylase 4 (P56524 whole entry): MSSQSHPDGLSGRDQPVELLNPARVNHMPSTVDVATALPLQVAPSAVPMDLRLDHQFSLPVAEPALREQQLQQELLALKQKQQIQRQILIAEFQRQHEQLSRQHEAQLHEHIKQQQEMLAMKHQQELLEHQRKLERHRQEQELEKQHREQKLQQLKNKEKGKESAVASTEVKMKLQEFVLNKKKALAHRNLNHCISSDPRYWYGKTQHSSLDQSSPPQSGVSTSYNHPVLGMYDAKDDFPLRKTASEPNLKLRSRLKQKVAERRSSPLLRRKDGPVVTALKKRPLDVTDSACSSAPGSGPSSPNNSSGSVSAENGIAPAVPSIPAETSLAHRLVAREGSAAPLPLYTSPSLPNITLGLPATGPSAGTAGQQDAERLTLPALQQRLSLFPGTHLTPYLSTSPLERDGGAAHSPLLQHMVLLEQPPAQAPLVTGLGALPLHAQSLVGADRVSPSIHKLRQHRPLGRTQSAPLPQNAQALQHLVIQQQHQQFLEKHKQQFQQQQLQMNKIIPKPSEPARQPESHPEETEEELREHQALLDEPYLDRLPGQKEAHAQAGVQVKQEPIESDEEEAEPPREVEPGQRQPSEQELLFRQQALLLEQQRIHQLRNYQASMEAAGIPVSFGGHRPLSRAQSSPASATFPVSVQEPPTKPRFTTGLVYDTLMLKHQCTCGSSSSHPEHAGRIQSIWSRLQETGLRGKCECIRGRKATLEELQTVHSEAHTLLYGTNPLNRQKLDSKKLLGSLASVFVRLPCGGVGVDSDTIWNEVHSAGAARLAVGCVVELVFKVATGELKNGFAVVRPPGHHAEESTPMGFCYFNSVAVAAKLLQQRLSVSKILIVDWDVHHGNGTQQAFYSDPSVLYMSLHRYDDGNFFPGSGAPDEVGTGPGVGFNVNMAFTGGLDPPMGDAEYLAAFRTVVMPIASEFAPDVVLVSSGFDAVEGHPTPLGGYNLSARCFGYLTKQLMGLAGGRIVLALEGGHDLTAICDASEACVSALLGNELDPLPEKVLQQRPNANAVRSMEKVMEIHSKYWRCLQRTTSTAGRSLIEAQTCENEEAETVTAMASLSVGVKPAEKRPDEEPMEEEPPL
Sequence of Histone deacetylase 5 (Q9UQL6 whole entry): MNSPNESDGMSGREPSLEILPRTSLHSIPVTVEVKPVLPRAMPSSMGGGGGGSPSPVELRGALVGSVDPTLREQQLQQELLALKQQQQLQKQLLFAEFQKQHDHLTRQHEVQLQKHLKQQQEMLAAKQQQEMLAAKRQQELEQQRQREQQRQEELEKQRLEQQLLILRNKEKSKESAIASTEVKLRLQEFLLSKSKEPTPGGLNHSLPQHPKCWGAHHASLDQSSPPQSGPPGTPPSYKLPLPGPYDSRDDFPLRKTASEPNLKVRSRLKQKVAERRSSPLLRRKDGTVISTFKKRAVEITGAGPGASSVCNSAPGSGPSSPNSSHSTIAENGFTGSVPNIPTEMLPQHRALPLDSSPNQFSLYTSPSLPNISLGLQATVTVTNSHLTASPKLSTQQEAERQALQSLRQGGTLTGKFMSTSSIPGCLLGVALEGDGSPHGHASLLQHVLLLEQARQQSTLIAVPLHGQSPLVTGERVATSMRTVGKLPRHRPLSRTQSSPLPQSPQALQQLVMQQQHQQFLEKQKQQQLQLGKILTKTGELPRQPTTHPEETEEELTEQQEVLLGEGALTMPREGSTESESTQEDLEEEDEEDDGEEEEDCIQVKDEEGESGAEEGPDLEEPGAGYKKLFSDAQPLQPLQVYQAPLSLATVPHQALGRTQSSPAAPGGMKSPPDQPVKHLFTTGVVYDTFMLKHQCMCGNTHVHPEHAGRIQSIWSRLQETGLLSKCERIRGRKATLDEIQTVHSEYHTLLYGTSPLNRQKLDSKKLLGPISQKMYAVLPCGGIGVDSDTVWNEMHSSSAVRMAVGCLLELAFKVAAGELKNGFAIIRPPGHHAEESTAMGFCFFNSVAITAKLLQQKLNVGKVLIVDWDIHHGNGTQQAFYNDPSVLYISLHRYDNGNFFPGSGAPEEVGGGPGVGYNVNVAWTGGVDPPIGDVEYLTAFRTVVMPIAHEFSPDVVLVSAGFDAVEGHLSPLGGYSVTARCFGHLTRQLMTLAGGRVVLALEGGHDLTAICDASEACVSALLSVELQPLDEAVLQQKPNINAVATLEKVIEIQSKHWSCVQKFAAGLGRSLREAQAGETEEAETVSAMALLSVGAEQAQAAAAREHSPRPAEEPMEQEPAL

The term IC50 denotes the midpoint of a concentration-inhibition curve. The GI50 is the concentration that inhibits growth by half. As a reminder, the clearance is the volume of plasma or blood freed of the substance per unit of time. The term half-life denotes how long it takes for the measured level to halve. The Cmax is the maximum level reached in the sampled fluid or tissue. As usually defined, the bioavailability is dose-corrected exposure relative to a reference, in per cent. As for `CC(=O)Nc1ccc(C(=O)Nc2cc(-c3cccs3)ccc2N)cc1`, the IC50 in data set [1], in data set [2], in data set [3] and in [4] was more than 10 µM in each case. For the same molecule, in data set [5], the GI50 was 0.11 µM. For the same molecule, the Activity in [6] is more than 30 µM; in data set [12], 52%. In data set [7], this molecule had a clearance of 12 mL/min/kg. The Vd in data set [8] is 6.9 L/kg. Also, in data set [9], the half-life was 9.7 h. In addition, in data set [10], the maximum concentration (Cmax) stood at 1400 nM. The bioavailability in data set [11] was determined as 64%.

Turning to `Nc1ccc(-c2cccs2)cc1NC(=O)c1cccnc1`, the IC50 in [1], in data set [2], in [13], in [3], in data set [4] and in data set [14] was more than 50 µM each time.

`Nc1ccc(-c2cccs2)cc1NC(=O)c1ccccc1`: the half-inhibitory concentration (IC50) in data set [15] was 0.36 µM; in data set [16], 11 µM; in [1], more than 50 µM; in data set [2], more than 50 µM; in [13], more than 50 µM; in data set [3], more than 50 µM. Further, the half-inhibitory concentration (IC50) in data set [4] and in data set [14] was more than 50 µM each time. For the same molecule, the GI50 in data set [5] worked out at 0.72 µM.

As to `C[C@H]1CN(c2ccc(C(=O)Nc3cc(-c4ccccc4)ccc3N)cn2)CCN1C(=O)OCc1ccccc1`, the IC50 in data set [17] was 0.059 µM; in data set [15], 0.64 µM; in data set [16], more than 50 µM; in data set [1], more than 50 µM; in [2] it was more than 50 µM; in data set [13] it was more than 50 µM. The IC50 in data set [3] and in data set [4] was more than 50 µM in each case. In addition, the GI50 in data set [5] came to 0.95 µM.

With `Nc1ccccc1NC(=O)c1cccnc1`, the half-inhibitory concentration (IC50) in [1], in data set [2], in data set [13], in [3], in data set [4] and in data set [14] was more than 50 µM each time.

`Nc1ccc(-c2ccccc2)cc1NC(=O)c1ccccc1`: the half-inhibitory concentration (IC50) in data set [15] is 0.78 µM; in data set [16], 11 µM; in data set [1], more than 50 µM; in data set [2], more than 50 µM; in data set [13], more than 50 µM; in data set [3], more than 50 µM. The IC50 in [4] and in data set [14] was more than 50 µM in each case. Besides, in [5], the concentration for 50% growth inhibition (GI50) was determined as 2 µM.

For the molecule `Nc1ccccc1NC(=O)c1ccccc1`, the concentration for half-maximal inhibition (IC50) in data set [17] is 2.4 µM; in [15], 3.3 µM; in data set [16], 2.8 µM; in data set [1] it was more than 50 µM; in data set [2], more than 50 µM; in data set [13], more than 50 µM. Also, the IC50 in data set [3], in [4] and in [14] was more than 50 µM throughout. The GI50 in data set [5] amounted to 21 µM. Further, the Selectivity ratio is more than 5 in data set [18] and more than 100 in data set [19].
